From patent publication US20070166774A1, “Functional immunoassay” (priority 2006, published 2007)

Test system: antibody (anti-gadolinium-DTPA)
Assay: Immunoassay of gadolinium DTPA, standard curve (HRP-conjugate, microtiter plate)
Type: binding, rabbit
Experimental: White New Zealand rabbits were injected subcutaneously with 1 mg of antigen (1 mg/ml) in multiple sites on the rabbit's back according to the schedule in Table 2. The initial injection was prepared in Freund's complete adjuvant. All other injections were prepared in Freund's incomplete adjuvant. Coating polystyrene microtiter plates. Microtiter strips were coated with 200 ul of 10 ug/ml antibody solution diluted in 0.1 M carbonate buffer pH 9 and incubated overnight at room temperature. The coated plates were blocked with a phosphate buffered saline, pH 7.4 solution containing bovine serum (5 mg/ml) and dextrose 20 mg/ml) for 30 minutes, blotted dry and stored at 4° C. until used. All plates were used within 5 days of preparation. In a typical preparation the coating antibody was a goat anti-rabbit serum. HRP-conjugates. HRP-conjugates prepared as described in Example 11 were diluted between 1 to 100 and 1 to 1000 into phosphate buffered saline, pH 7.4 buffer containing bovine albumin (1 mg/ml). General immunoassay protocols for analytes were performed as follows. 100 μl of standard or serum sample was pipeted into appropriate wells in duplicate followed by 100 μl of antibody. To each well was added 200 μl of HRP-conjugate. After a 60 minute incubation at room temperature the wells were aspirated and washed three times with phosphate buffered saline, pH 7.4 containing (0.1% serum albumin and 0.01% Tween 20. To each well was added 200 ul of substrate solution and incubated for 30 minutes at room temperature. The development of color was stopped by the addition of 50 μl of stop solution. The wells were read using a microtiter plate reader. Standard curve data for gadolinium DTPA is shown in Table 3. Standard values were chosen specifically for this assay as shown in Table 3.

With `O=C([O-])CN(CCN(CC(=O)[O-])CC(=O)[O-])CCN(CC(=O)[O-])CC(=O)[O-].[Gd+3]` [Gadolinium DTPA, gadolinium DTPA] the “Optical density, 450 nm” value (Gadolinium DTPA concentration 1 × 10^−2 M) was 0.29, the “Optical density, 450 nm” value (Gadolinium DTPA concentration 1 × 10^−3 M) was 0.42 and the “Optical density, 450 nm” value (Gadolinium DTPA concentration 1 × 10^−4 M) was 0.48. For the same compound, the “Optical density, 450 nm” value (Gadolinium DTPA concentration 1 × 10^−5 M) was 0.57, the “Optical density, 450 nm” value (Gadolinium DTPA concentration 1 × 10^−6 M) was 0.58 and the “Optical density, 450 nm” value (Gadolinium DTPA concentration 5 × 10^−5 M) was 0.55. The “Optical density, 450 nm” value (Gadolinium DTPA concentration 5 × 10^−6 M) was 0.61.
